For two compounds, tumor growth results are on record in patent publication US11434289B2, “Anti-GPR20 antibody and anti-GPR20 antibody-drug conjugate” (DAIICHI SANKYO COMPANY, LIMITED, priority 2017, dated 2022).

For one assay, the system named is GIST074. Put plainly: Antitumor effect in subcutaneously GIST074-transplanted nude mouse models (regorafenib-unresponsive patient tumor). The assay is classed as in vivo, BALB/c nude mice. The note with it: orally once a day; imatinib 90, sunitinib 30, regorafenib 4 mg/kg; FIG. 36. The procedure:
The antitumor effects of the antibody-drug conjugates were evaluated using animal models derived from immunodeficient mice by the transplantation of human gastrointestinal stromal tumor-derived cells. Five- to 6-week-old female BALB/c nude mice (CAnN.Cg-Foxnlnu/CrlCrlj, Charles River Laboratories Japan Inc.) were acclimatized for 4 to 7 days under SPF conditions before use in the experiment. The mice were fed with a sterilized solid diet (FR-2, Funabashi Farms Co., Ltd) and given sterilized tap water (which had been prepared by adding a 5 to 15 ppm sodium hypochlorite solution to tap water). The longest diameter and the shortest diameter of the transplanted tumor were measured once or twice a week using electronic digital calipers (CD-15CX, Mitutoyo Corp.), and the volume of the tumor was then calculated according to the following equation. Tumor volume (mm^3)=½×Longest diameter (mm)×[Shortest diameter (mm)]^2
[…] ABS buffer was administered in the same manner as above to a control group (vehicle group). Five or six mice per group were used in the experiment. […]

Assay [1] concerns human gastrointestinal stromal tumor cell line GIST430/654. In words: Antitumor effect and combined use with sunitinib in GIST430/654-transplanted nude mouse models (imatinib resistance mutation V654A in KIT). The assay is classed as in vivo, BALB/c nude mice. To be noted: orally once a day; imatinib 150, sunitinib 40 mg/kg; FIG. 37.
Experimental: The effect of combined use with sunitinib was evaluated in models with human gastrointestinal stromal tumor cell line GIST430/654 (obtained from Brigham Women's Hospital) having imatinib resistance mutation V654A in the KIT gene. […]

As to `Cc1ccc(NC(=O)c2ccc(CN3CCN(C)CC3)cc2)cc1Nc1nccc(-c2cccnc2)n1` [imatinib], the tumor growth result is “tumor growth was not completely suppressed” in the assay on GIST074 and “did not suppress tumor growth” in assay [1].

Regarding `CNC(=O)c1cc(Oc2ccc(NC(=O)Nc3ccc(Cl)c(C(F)(F)F)c3)c(F)c2)ccn1` [regorafenib], the tumor growth result in the assay with GIST074 was “tumor growth was not completely suppressed”.
